Source: patent US20230117831A1, “MULTI-FUNCTIONAL CHIMERIC MOLECULES” (THE BROAD INSTITUTE, INC., priority 2020, published 2023)
pKd: −log10 of the molar value. Entries after “also recorded” stand apart in the source; their conditions may differ.

What was measured:
PKCalpha [1] = target: T1, PKCalpha (Homo sapiens, UniProt P17252); settings: cited from earlier work
PKC beta = PKC beta (Homo sapiens, UniProt P05771); settings: cited from earlier work
PKC gamma = PKC gamma (Homo sapiens, UniProt P05129); settings: cited from earlier work
PKC delta = PKC delta (Homo sapiens, UniProt Q05655); settings: cited from earlier work
Sequence of PKC delta (Q05655 whole entry): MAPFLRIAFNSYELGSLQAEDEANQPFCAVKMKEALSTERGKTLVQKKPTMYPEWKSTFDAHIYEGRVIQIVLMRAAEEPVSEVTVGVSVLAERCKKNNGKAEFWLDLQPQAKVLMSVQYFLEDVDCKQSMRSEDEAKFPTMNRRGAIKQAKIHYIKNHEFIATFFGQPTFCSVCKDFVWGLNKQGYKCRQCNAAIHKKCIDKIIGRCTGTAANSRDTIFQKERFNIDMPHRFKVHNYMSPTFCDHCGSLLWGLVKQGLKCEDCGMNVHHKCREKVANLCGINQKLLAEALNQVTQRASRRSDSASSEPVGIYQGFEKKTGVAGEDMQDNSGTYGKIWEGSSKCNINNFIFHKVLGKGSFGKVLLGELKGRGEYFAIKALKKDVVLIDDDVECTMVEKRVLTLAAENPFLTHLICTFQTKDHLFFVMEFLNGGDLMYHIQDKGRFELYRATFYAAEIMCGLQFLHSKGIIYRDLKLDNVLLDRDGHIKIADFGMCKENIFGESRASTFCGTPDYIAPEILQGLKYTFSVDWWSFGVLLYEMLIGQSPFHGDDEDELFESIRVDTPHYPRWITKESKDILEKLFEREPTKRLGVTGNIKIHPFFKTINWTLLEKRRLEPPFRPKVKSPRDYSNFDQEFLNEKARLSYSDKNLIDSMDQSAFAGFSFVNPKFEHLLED

PKC epsilon = target: T2, PKC epsilon (Homo sapiens, UniProt Q02156); settings: cited from earlier work
T2 sequence (Q02156 1-737): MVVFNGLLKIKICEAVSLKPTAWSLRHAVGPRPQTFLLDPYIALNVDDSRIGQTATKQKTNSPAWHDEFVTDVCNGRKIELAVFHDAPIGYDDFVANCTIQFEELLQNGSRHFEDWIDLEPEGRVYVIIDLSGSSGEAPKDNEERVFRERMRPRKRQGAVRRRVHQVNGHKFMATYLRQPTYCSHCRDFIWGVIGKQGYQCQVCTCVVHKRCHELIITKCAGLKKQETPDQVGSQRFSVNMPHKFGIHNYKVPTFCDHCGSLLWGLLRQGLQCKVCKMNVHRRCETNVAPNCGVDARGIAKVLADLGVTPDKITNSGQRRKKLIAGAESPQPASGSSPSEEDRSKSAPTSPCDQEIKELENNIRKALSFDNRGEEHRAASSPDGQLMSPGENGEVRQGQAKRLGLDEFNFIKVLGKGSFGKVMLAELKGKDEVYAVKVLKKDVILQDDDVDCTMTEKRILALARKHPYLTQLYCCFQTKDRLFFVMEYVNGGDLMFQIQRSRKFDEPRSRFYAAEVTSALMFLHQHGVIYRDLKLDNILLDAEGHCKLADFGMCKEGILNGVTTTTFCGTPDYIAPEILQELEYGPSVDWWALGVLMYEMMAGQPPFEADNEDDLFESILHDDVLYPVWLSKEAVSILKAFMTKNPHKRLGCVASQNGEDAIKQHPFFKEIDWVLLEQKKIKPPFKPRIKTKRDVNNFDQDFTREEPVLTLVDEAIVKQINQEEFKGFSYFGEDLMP

[2] = test system: breast carcinoma cell lines MCF-7 and MDA-MB-231; settings: cited from earlier work
PKCalpha [3] = target: T1, PKCalpha; settings: cited from earlier work; remark: listed apart in the source
[4] = test system: lung cancer and HeLa cervical adenocarcinoma cells; settings: formation of membrane ruffles; cited from earlier work
PKCδ = PKCδ (Homo sapiens, UniProt Q05655); settings: cited from earlier work
Sequence of PKCδ (Q05655 whole entry): as the sequence (Q05655 whole entry) above

ABL [5] = target: T3, ABL (Homo sapiens, UniProt P00519); test: ADP-Glo ABL activation; assay type: biochemical
T3 sequence (P00519 whole entry, species assumed, the tested form may be a part): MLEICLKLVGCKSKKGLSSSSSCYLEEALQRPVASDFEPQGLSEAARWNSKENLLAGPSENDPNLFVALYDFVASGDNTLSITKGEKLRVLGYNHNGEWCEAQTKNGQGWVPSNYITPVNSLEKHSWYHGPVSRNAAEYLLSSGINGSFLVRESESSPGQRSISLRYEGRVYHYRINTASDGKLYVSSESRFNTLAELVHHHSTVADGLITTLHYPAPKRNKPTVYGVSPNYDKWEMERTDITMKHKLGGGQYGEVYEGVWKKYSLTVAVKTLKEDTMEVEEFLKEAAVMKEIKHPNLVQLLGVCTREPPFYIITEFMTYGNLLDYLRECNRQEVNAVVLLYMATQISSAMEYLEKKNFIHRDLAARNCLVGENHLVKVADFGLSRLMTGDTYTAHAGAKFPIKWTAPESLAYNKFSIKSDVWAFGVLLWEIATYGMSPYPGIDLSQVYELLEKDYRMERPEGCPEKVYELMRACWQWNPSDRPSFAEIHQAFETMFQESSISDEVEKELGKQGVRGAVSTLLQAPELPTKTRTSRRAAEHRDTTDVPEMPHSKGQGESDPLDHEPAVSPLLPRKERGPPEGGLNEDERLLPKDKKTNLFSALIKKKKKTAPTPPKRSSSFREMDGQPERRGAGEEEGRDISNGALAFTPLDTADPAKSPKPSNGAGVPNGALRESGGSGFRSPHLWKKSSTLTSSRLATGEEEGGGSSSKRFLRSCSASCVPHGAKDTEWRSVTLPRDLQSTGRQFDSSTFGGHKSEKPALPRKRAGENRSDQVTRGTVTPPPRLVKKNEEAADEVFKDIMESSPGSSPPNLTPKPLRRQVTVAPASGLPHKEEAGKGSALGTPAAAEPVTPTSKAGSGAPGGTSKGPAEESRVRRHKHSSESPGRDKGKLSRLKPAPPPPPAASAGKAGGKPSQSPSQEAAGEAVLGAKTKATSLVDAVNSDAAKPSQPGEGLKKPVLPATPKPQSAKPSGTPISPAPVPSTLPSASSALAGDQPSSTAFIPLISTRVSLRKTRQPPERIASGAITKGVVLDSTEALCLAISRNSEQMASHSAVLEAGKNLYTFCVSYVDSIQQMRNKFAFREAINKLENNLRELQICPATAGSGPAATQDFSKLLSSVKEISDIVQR
Excerpt: To expand the scope of PHICS beyond the Ser/Thr kinases (AMPK or PKC), Applicants will develop PHICS using the Abelson (ABL) family that are nonreceptor tyrosine kinases with SH3-SH2-TK ([…]) domains (42, 43). An autoinhibitory mechanism involving intramolecular interactions stabilizes this kinase in a “locked” conformation, inhibiting kinase activity unless the SH3 domain interactions are disrupted by binding of an activator. The SH2 domain of ABL is responsible for substrate specificity: if the SH2 domain is exchanged for another protein's SH2 domain, then substrate specificity is altered (43). […] Both DPH and DPH with linker (FIG. 83B) activated ABL in […] (FIG. 83C).

ABL [6] = target: T3, ABL; settings: cited from earlier work
VEGFR = VEGFR (Homo sapiens, UniProt P35968); settings: cited from earlier work
Sequence of VEGFR (P35968 806-1171 limits assumed): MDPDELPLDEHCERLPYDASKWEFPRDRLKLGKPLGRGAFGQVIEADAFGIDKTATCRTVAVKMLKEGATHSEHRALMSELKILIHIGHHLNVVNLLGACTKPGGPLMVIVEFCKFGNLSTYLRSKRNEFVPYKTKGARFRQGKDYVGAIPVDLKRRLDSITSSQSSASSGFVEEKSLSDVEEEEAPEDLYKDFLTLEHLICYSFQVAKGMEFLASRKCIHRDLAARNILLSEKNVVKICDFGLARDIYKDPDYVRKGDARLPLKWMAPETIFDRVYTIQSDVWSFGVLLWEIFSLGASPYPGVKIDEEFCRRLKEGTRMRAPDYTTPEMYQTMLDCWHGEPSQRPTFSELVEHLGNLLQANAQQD

BRD4 and PKC (α-isoform) = target: T4, BRD4 and PKC (α-isoform) (Homo sapiens, UniProt O60885+P17252); test: AlphaScreen ternary complex formation; assay type: binding
T4 construct: BRD4-His tag (BD1 and BD2 (49-460))(31045); purchased BPS Bioscience (BRD4); SignalChem (PKCα) 31045; P61-18G
Method: A similar approach was followed to determine the PHICS2 induced ternary complex formation between PKC: PHICS2: BRD4-GST (BD1 and BD2). Initially, concentration series of PHICS (2.1, 2.2, 2.3, 2.4 and 2.5) with different linkers and (R)-PHICS2.3 with DMSO control were prepared in a white opaque 384-well microplate using a dilution assay buffer with 1% DMSO in the final mixture. Then 10 nM PKC-GST and 100 nM BRD4 (6×His tag) were added to the mixture and incubated at room temperature. Following 1 hr incubation, acceptor beads and donor beads were added to the system.

BRD4 (PKCα) = target: T5, BRD4 (PKCα) (Homo sapiens, UniProt O60885+P17252); test: BRD4 phosphorylation by PKC, western blot; assay type: biochemical
T5 construct: BRD4-GST (BD1 and BD2 (49-460))(31044); GST; purchased BPS Bioscience (BRD4); SignalChem (PKCα) 31044; P61-18G
Method: Kinase reaction was performed using 1 μM PHICS (2.1, 2.2, 2.3, 2.4, 2.5 and (R)-2.3), 50 nM PKC, 700 nM BRD4-GST and 50 μM ATP for 1 hr at room temperature before quenching with SDS loading buffer. Proteins were resolved in NuPAGE 4-12% Bis-Tris protein gels and transferred to a PVDF membrane. After incubation of the membrane with the blocking buffer, phospho-PKC substrate motif [(R/K)XpSX(R/K)] (Cell Signaling, Cat #6967) (1:1000) primary antibody was added to the membrane and further incubated at 4° C. for overnight. HRP-conjugated secondary antibodies or IRDye 800CW/IRDye 680RD secondary antibodies were used to visualize the protein bands.
(§1) Similar approaches were followed to determine the phosphorylation of BRD4 with different AMPK and PKC isoforms as well as phosphorylation of different BRD proteins.

BRD4 (PKC) = target: T6, BRD4 (PKC) (Homo sapiens, UniProt O60885+P17252); test: ADP-Glo turnover assay, PKC + BRD4-GST; assay type: biochemical; settings: limiting PKC 50 nM; iPHICS2 as negative control
T6 construct: BRD4-GST (BD1 and BD2 (49-460))(31044); GST; purchased BPS Bioscience (BRD4); SignalChem (PKCα) 31044; P61-18G
Method: The same protocol was followed for PHICS2.3 as well. Initially, 1 μM of PHICS2.3 and (R)-PHICS2.3 were prepared in a 96 well plate (white, flat bottom) using kinase assay buffer and incubated with 50 nM PKC and 700 nM BRD4-GST (BD1 and BD2) for 1 hr at room temperature in the presence of 50 μM ATP before adding ADP-Glo reagents.

BRD4 (PKCβI) = target: T7, BRD4 (PKCβI) (Homo sapiens, UniProt O60885+P05771); test: BRD4 phosphorylation by PKC isoform, western blot; assay type: biochemical
T7 construct: BRD4-GST (BD1 and BD2 (49-460))(31044); purchased SignalChem (PKC); BPS Bioscience (BRD4) P62-18G; 31044
Excerpt: as §1

BRD4 (PKCβII) = target: T8, BRD4 (PKCβII) (Homo sapiens, UniProt O60885+P05771); test: BRD4 phosphorylation by PKC isoform, western blot; assay type: biochemical
T8 construct: BRD4-GST (BD1 and BD2 (49-460))(31044); purchased SignalChem (PKC); BPS Bioscience (BRD4) P63-18G; 31044
Excerpt: as §1

BRD4 (PKCγ) = target: T9, BRD4 (PKCγ) (Homo sapiens, UniProt O60885+P05129); test: BRD4 phosphorylation by PKC isoform, western blot; assay type: biochemical
T9 construct: BRD4-GST (BD1 and BD2 (49-460))(31044); purchased SignalChem (PKC); BPS Bioscience (BRD4) P66-18G; 31044
Excerpt: as §1

BRD4 (PKCδ) = target: T10, BRD4 (PKCδ) (Homo sapiens, UniProt O60885+Q05655); test: BRD4 phosphorylation by PKC isoform, western blot; assay type: biochemical
T10 construct: BRD4-GST (BD1 and BD2 (49-460))(31044); purchased SignalChem (PKC); BPS Bioscience (BRD4) P64-18G; 31044
T10 sequence (Q05655 whole entry, other chains not shown, canonical isoform): as the sequence (Q05655 whole entry) above
Excerpt: as §1

BTK (Ser180) [7] = target: BTK (Ser180) (Homo sapiens, UniProt Q06187+Q13131+Q9Y478); test: in vitro BTK phosphorylation by AMPK, western blot; assay type: biochemical; settings: phospho BTK (Ser180) antibody
Method: FIG. 69—In-vitro biochemical validation of BTK phosphorylation by AMPK in the presence of PHICS. Western blot analysis for BTK phosphorylation using 10 μM BTK targeting AMPK-PHICS with different linkers for identification of the optimal molecule for further studies.

[8] = test system: AMPK:PHICS3:BTK ternary complex; test: co-immunoprecipitation of AMPK with BTK-Flag in HEK293T cells; assay type: cell-based; settings: HEK293T transfected with BTK-Flag
Method: Co-immunoprecipitation was performed to evaluate the ternary complex (AMPK: PHICS3: BTK) formation in HEK293T cells after overexpressing the BTK, which is otherwise absent in these cells. HEK293T cells were cultured in DMEM supplemented with 10% FBS, penicillin (100 units/mL) and streptomycin (100 μg/mL). Cells were maintained at 37° C. in 5% CO2 humidified atmosphere.
After 36 hrs transfection of pcDNA3.1(+) BTK-Flag plasmid using TransIT®-293 Transfection Reagent, HEK 293T cells were maintained in a serum-free media overnight before incubation with compounds. After that, cells were treated with 5 μM concentration of AMPK activator or BTK binder or PHICS3 or DMSO control for 4 hrs in a fresh serum-free media before cells were lysed on ice in a lysis buffer (M-PER™ Mammalian Protein Extraction Reagent, Halt™ Protease and Phosphatase Inhibitor Cocktail (2×) and 50 mM NaF). Next, the protein concentrations of cell lysates were measured using Pierce™ BCA Protein Assay Kit. Equal amounts of cell lysates were incubated with Anti-FLAG® M2 Magnetic Beads overnight at 4° C. […] Eluted proteins were analyzed by western blotting using AMPK-α rabbit antibody (Cell Signaling, Cat #5832) or Flag mouse antibody (Cell Signaling, Cat #8146) (1:2000) or Beta-actin mouse antibody (Cell Signaling, Cat #3700) (1:2000).

BTK (Ser180) [9] = target: BTK (Ser180) (Homo sapiens, UniProt Q06187); test: BTK Ser180 phosphorylation in HEK293T cells, western blot; assay type: cell-based
Sequence of BTK (Ser180) (Homo sapiens, UniProt Q06187) (Q06187 2-659): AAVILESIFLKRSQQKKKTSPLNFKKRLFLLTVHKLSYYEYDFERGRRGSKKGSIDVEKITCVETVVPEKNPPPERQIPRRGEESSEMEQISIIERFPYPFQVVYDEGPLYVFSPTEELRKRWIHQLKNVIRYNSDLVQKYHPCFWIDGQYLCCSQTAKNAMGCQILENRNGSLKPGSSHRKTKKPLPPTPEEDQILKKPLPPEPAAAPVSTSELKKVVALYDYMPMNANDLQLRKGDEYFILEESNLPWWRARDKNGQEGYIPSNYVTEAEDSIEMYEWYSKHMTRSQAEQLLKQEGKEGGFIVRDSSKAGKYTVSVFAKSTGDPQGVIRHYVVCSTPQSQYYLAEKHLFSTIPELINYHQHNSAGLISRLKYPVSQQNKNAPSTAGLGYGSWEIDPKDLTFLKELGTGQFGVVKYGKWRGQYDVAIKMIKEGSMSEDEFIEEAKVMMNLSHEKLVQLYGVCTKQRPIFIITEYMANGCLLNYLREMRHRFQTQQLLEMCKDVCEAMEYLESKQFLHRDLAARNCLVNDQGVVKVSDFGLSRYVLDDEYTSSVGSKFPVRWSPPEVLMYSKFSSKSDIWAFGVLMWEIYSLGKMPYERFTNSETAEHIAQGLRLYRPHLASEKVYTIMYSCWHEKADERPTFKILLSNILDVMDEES

BTK (Ser180) [10] = target: T11, BTK (Ser180) (Homo sapiens, UniProt Q06187, D539N); test: as above; assay type: cell-based; settings: BTK D539N mutant
T11 construct: expressed in transfected cells; host or cells: HEK293T

BTK (Ser180) [11] = target: T12, BTK (Ser180) (Homo sapiens, UniProt Q06187, K430R); test: as above; assay type: cell-based; settings: BTK K430R mutant
T12 construct: expressed in transfected cells; host or cells: HEK293T
T12 sequence (Q06187 2-659 K430R): as the sequence (Q06187 2-659) above, with K429R counted along it

BTK (Ser180) [12] = target: T13, BTK (Ser180) (Homo sapiens, UniProt Q06187, S180A); test: as above; assay type: cell-based; settings: BTK-Flag S180A mutant
T13 construct: expressed in transfected cells; host or cells: HEK293T

BTK (Ser180) [13] = target: T14, BTK (Ser180) (Homo sapiens, UniProt Q06187, T474A); test: as above; assay type: cell-based; settings: BTK T474A mutant
T14 construct: expressed in transfected cells; host or cells: HEK293T
T14 sequence (Q06187 2-659 T474A): as the sequence (Q06187 2-659) above, with T473A counted along it

Sequence of PKC beta (P05771 whole entry): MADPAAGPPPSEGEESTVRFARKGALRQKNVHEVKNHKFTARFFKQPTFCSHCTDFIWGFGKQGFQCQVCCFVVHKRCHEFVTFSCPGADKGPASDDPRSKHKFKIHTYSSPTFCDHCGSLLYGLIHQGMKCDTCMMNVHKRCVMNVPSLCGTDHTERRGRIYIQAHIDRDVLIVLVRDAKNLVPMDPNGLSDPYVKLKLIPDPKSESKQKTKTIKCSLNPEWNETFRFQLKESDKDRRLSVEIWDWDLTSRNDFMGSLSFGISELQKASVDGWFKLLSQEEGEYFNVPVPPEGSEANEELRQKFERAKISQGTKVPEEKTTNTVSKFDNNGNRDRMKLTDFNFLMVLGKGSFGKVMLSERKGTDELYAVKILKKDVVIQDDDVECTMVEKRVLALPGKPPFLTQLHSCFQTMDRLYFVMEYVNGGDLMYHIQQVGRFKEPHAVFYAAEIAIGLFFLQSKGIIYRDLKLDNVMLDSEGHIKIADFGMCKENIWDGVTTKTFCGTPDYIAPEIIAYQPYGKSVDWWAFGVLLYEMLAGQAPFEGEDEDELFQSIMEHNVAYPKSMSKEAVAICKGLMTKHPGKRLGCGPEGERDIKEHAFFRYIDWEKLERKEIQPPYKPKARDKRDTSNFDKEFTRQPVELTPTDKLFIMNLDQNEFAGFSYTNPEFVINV

CCCCCCCCC#Cc1ccc2c(c1)C[C@@H](CO)NC(=O)[C@H](C(C)C)N2C
pKd (PKCalpha [1]): 7.83
pKd (PKC beta): 7.76
pKd (PKC gamma): 7.39
pKd (PKC delta): 6.91
pKd (PKC epsilon): 6.85
antiproliferative activity against breast carcinoma [2]: antiproliferative activity
down-regulation of PKCalpha (PKCalpha [3]): preferentially down-regulates PKCalpha

CC(C)CC(C/C=C1\CC(CO)(COC(=O)C(C)(C)C)OC1=O)CC(C)C (stereo not shown) [AJH-836]
pKd (PKCalpha [1]): 7.63
pKd (PKC beta): 7.71
pKd (PKC delta): 8.72
pKd (PKC epsilon): 8.72
cytoskeletal reorganization [4]: AJH-836 induced major changes in cytoskeletal reorganization in lung cancer and HeLa cervical adenocarcinoma cells as determined by the formation of membrane ruffles
PKC isoform selectivity (PKCδ): selective for PKCδ and PKC

O=C1NC(=O)C(c2cn(-c3ccccc3)nc2-c2ccc(F)cc2)N1 (stereo not shown) [DPH, 5-[3-(4-fluorophenyl)-1-phenyl-1H-pyrazol-4-yl]-2,4-imidazolidinedione]
ABL activation (ADP-Glo) (ABL [5]): activated
pKd (ABL [6]): 6.86

COc1cc2nccc(Oc3ccc(NC(=O)NC4CC4)c(Cl)c3)c2cc1C(N)=O [Lenvatinib]
Residence time (VEGFR): 17 min

Cc1sc2c(c1C)C(c1ccc(Cl)cc1)=NC(CC(=O)NCCCCCC(=O)NCc1ccc(COc3ccc4c(c3)N(C)[C@@H](C(C)C)C(=O)N[C@H](CO)C4)cc1)c1nnc(C)n1-2 (stereo partly shown) [PHICS2.3]
ternary complex formation (AlphaScreen), BRD4 and PKC (BRD4 and PKC (α-isoform)): displayed the bell-shaped curve
BRD4 phosphorylation level (BRD4 (PKCα)): highest BRD4 phosphorylation
calculated ADP production (BRD4 (PKC)): 740 ± 31 nM
BRD4 phosphorylation level (BRD4 (PKCβI)): modest phosphorylation
BRD4 phosphorylation level (BRD4 (PKCβII)): modest phosphorylation
BRD4 phosphorylation level (BRD4 (PKCγ)): only minor phosphorylation
BRD4 phosphorylation level (BRD4 (PKCδ)): only minor phosphorylation

Nc1ncnc2c1c(-c1ccc(Oc3ccccc3)cc1)nn2[C@@H]1CCCN(C(=O)CCCCCCCCC(=O)NCCOc2ccc(-c3cc4c(C(=O)O)c[nH]c4cc3Cl)cc2)C1 [PHICS3]
in vitro BTK phosphorylation (linker comparison) (BTK (Ser180) [7]): most optimal molecule for phosphorylation; also recorded: optimum
ternary complex formation inside the cells (co-immunoprecipitation) [8]: co-immunoprecipitation of AMPK with BTK
BTK phosphorylation at Ser180 (BTK (Ser180) [9]; WT BTK-Flag): optimal molecule for phosphorylation; also recorded: able to detect PHICS-mediated BTK phosphorylation at Ser180
BTK phosphorylation at Ser180 (BTK (Ser180) [9]; pre-treatment with covalent BTK binder ibrutinib): demolished the ability of PHICS3 to induce BTK phosphorylation
BTK phosphorylation at Ser180 (BTK (Ser180) [10]): markedly reduced
BTK phosphorylation at Ser180 (BTK (Ser180) [11]): markedly reduced
BTK phosphorylation at Ser180 (BTK (Ser180) [12]): phosphorylation was not detected
BTK phosphorylation at Ser180 (BTK (Ser180) [13]): drastically lowered BTK phosphorylation
